Measured values published in patent US7943309B2, “HLA alleles associated with adverse drug reactions and methods for detecting such” (Pharmigene Inc., priority 2006, dated 2011).
Where “and” joins values, the source holds several entries; their conditions need not be identical. Equal entries are not always repeated.

Experiments:
[1] = system: CBZ-reactive T cells; assay: Cross-reactivity of CBZ-reactive T cells (interferon-γ ELISPOT); type: cell-based, human; conditions: T cells of HLA-B*1502 patients with CBZ-induced SJS/TEN, autologous B cells, 24 hours
Description: Two patients having CBZ-induced SJS/TEN were recruited from Chang Gung Memorial Hospital. […] Genomic DNAs were extracted from the patients using […] DNA purification system (Gentra systems, Minnesota, USA). The HLA-B alleles were verified using sequence-specific oligonucleotide reverse line blots (DYNAL Biotech Ltd., Bromborough, U.K.).
Peripheral blood mononuclear cells (PBMCs) were isolated from the patients by Ficoll-Isopaque (Pharmacia Fine Chemicals, Piscataway, N.J.) density gradient centrifugation. A portion of the PBMCs were transformed by Epstein-Bar virus to establish autologous B-cell lines.
T cells reactive to CBZ were expanded as described below. PBMCs prepared from the patients were cultured in complete RPMI medium containing 10% heat-inactivated human serum, IL-2 (25 U/ml), and CBZ (25 μg/ml)(Sigma) in a 37° C., 5% CO2 incubator for 7 days. The T cells were then expanded by co-culturing with irradiated (50Gy) autologous B cells in the presence of CBZ for 10 days. After 2 cycles of the above co-culturing procedure, the CBZ-activated T cells were collected and subjected to ELISPOT assays (eBioscience).
The CBZ-reactive T cells were tested for their cross-reactivity to compounds e.g., CBZ 10, 11-epoxide, Oxcarbazepine (brand name: trileptal), Licarbazepine, and sunlindac. Briefly, T lymphocytes (5×10^3 cells) were mixed with autologous B cells (5×10^4 cells) in 200 μl RPMI medium containing 10% FBS in the presence or absence of a test compound. The cells were then incubated for 24 hours in the wells of an ELISPOT plate coated with anti-interferon γ antibodies (Millipore). After incubation, the supernatant of the cell culture was collected and interferon-γ contained therein was detected using antibody-mediated methods known in the art.

[2] = system: HLA-B*1502; assay: Association of HLA-B*1502 with drug-induced SJS/TEN (HLA genotyping, case-control); set-up: species or system human; conditions: for number of HLA-B*1502-positive SJS/TEN patients who received the drug: among 17 carriers of 53 SJS/TEN patients who received other drugs
Procedure: 73 tegretol-tolerant patients were included as controls. […] All of these patients were subjected to genotyping. […] SSO (DYNAL Biotech Ltd.; Bromborough, UK). […] Marcel G. J. […] To some patients, SNP genotyping was performed using high throughput MALDI-TOF mass spectrometry. Briefly, primers and probes were designed using the Spectro[…] software (Sequenom, San Diego, Calif., USA). Multiplex polymerase chain reactions (PCR) were performed, the unincorporated dNTPs were dephosphorylated using the shrimp alkaline phosphatase (Hoffman-LaRoche, Basel, Switzerland), followed by primer extension. The purified primer extension reaction was spotted onto a 384-element silicon chip (SpectroCHIP, Sequenom), analyzed using a Bruker Biflex III MALDI-TOF SpectroREADER mass spectrometer (Sequenom) and spectra processed with […] (Sequenom).

[3] = system: HLA-Cw*0801; assay: Marker of B*1502 ancestral haplotype and ADRs: HLA-Cw*0801
Description: (§1) All of these patients were subjected to genotyping. Briefly, reagents for performing a reverse line blot assay using sequence-specific oligonucleotide (SSO) were purchased from DYNAL Biotech Ltd. (Bromborough, UK). PCR products were generated using biotinylated primers for the second and the third exons of the HLA class I or class II loci, and then hybridized to a line blot of SSO of probes immobilized on a nylon membrane. The presence of biotinylated PCR product bound to a specific probe is detected using streptavidin-horseradish peroxidase (HRP) and a chromogenic, soluble substrate to produce a blue “line” at the position of the positive probe. The probe reactivity pattern was interpreted by the genotyping software Dynal RELI™ SSO (DYNAL Biotech Ltd.; Bromborough, UK). Potential ambiguities were further resolved by sequence-based typing and DNA sequencing performed according to the IHWG Technical Manual (International Histocompatibility Working Group), see Genomic Analysis of the Human MHC DNABased Typing for HLA Alleles and Linked Polymorphisms. Marcel G. J. Tilanus, Editor in Chief, ISBN No. 0-945278-02-0.

[4] = system: HLA-Cw*0806; assay: Marker of B*1502 ancestral haplotype and ADRs: HLA-Cw*0806
Description: as §1

[5] = Clinical phenotype of drug-induced cutaneous ADR in individual patients; type: in vivo, human
Procedure: A total of 238 ADR patients (Mongoloids or Mongoloid descendents) were recruited either from Chang Gung Memorial Hospital or from several other medical centers throughout Taiwan for this study. Their drug-taking history including dosage and duration, and the phenotypes of ADRs were recorded. The diagnostic criteria of clinical morphology were defined according to Roujeau, J. Invest Dermatol., 102(6):28S-30S, 1994. […] SJS, overlap SJS-TEN and TEN are collectively referred to as SJS/TEN.

[6] = Onset of allopurinol-induced ADR symptoms; type: in vivo, human
[7] = system: Cw*0302; conditions: number (%)
[8] = system: A*3303; conditions: number (%)
[9] = system: DRB1*0301; conditions: number (%)
[10] = system: HLA-B*5801; assay: Association of HLA-B*5801 with allopurinol-induced severe ADRs (HSS, SJS, TEN); conditions: for B*5801 frequency, Allopurinol-tolerant: n = 98
[11] = system: HLA-B*4601; assay: Association of HLA-B*4601 with CBZ-induced milder cutaneous ADRs (HLA genotyping); set-up: species or system human
Description: 73 tegretol-tolerant patients were included as controls. Volunteers from the general population of Taiwanese (n=94; age range: 20 to 80 years) were also recruited.
All of these patients were subjected to genotyping.
In contrast, the allele was only found in 26% (19/73) of the CBZ-tolerant group.

[12] = system: HLA-A*1101
Description: as §1

[13] = system: HLA-DRB1*1202
Description: as §1

[14] = relative to the allopurinol-tolerant group

Question: Which “cross-reactivity of CBZ-reactive T cells to the compound” value (shortened to “cross-reactivity”) [1] does the source give for `NC(=O)N1c2ccccc2C2OC2c2ccccc21` (stereo not drawn) [CBZ 10, 11-epoxide] here?
Answer: cross-reactive

Question: For `NC(=O)N1c2ccccc2CC(=O)c2ccccc21` [Oxcarbazepine, 5H-Dibenz[b,f]azepine-5-carboxamide, 10,11-dihydro-10-oxo], which “cross-reactivity” value [1] is on record?
Answer: cross-reactive

Question: Which “cross-reactivity” value [1] does the source give for `CC1=C(CC(=O)O)c2cc(F)ccc2/C1=C\c1ccc([S+](C)[O-])cc1` (stereo not drawn) [Sulindac] here?
Answer: not

Question: What does the source list for `Oc1ncnc2[nH]ncc12` [allopurinol, Allopurinol]?
Answer: number of HLA-B*1502-positive SJS/TEN patients who received the drug [2]: 2; HLA-B*1502 frequency, Allopurinol SJS/TEN ([2]; n = 17, carriers, number (%)): 1 (5.8%); HLA-Cw*0801 frequency, Allopurinol SJS/TEN ([3]; n = 17, number (%)): 2 (11.7%); HLA-Cw*0806 frequency, Allopurinol SJS/TEN ([4]; n = 17, number (%)): 0 (0%); Phenotype ([5]; individual patient, cutaneous ADR to the suspected drug): SJS (11×) and SJS and vasculitis on leg and SJS, and lichenoid and TEN; Phenotype ([5]; individual patient, cutaneous ADR to the suspected drug, listed as Allopurinol): SJS; Phenotype ([5]; individual patient, cutaneous ADR to the suspected drug, listed as alloprinol): SJS; second attack after re-exposure to allopurinol ([6]; 2 patients): ≤ 2 days; onset of HSS symptoms after start of allopurinol exposure ([6]; all of the 31 patients): ≤ 2 months; Cw*0302 frequency, Allopurinol-ADRs ([7]; n = 31): 29 (93.5%); Cw*0302 frequency, Allopurinol-tolerant ([7]; n = 98): 15 (15.3%); A*3303 frequency, Allopurinol-ADRs ([8]; n = 31): 20 (64.5%); A*3303 frequency, Allopurinol-tolerant ([8]; n = 98): 18 (18.4%); DRB1*0301 frequency, Allopurinol-ADRs ([9]; n = 31): 21 (67.7%); DRB1*0301 frequency, Allopurinol-tolerant ([9]; n = 98): 14 (14.3%); sensitivity of HLA-B*5801 for allopurinol-induced severe ADRs [10]: 100%; specificity of HLA-B*5801 for allopurinol-induced severe ADRs [10]: 84%; Odds ratio (Allopurinol-ADRs/Normal), B*5801 ([10]; 31 ADR patients vs 93 normal subjects): 241; Odds ratio (Allopurinol-ADRs/Tolerant), B*5801 ([10]; 31 ADR patients vs 98 tolerant patients): 315; B*5801 frequency, Allopurinol-ADRs (severe ADRs) ([10]; n = 31, carriers, number (%)): 31 (100%); B*5801 frequency, Allopurinol-tolerant ([10]; carriers, number (%)): 16 (16.3%); B*5801 frequency, Allopurinol-tolerant ([10]; carriers, number (%), listed as Allopurinol): 16 (16.3%)^1; negative predictive value, absence of HLA-B*5801, allopurinol-induced ADRs [10, 14]: 100%; positive predictive value, presence of HLA-B*5801, allopurinol-induced ADRs [10, 14]: 66%

Question: With `CC1(C)S[C@@H]2[C@H](NC(=O)[C@H](N)c3ccc(O)cc3)C(=O)N2[C@H]1C(=O)O` [amoxicillin] as the compound, how does the “number of HLA-B*1502-positive SJS/TEN patients who received the drug” value [2] read?
Answer: 2

Question: Which “cross-reactivity” value [1] does the source give for “(S)-(−)-10-acetoxy-10,11- dihydro-5H-dibenzo/b,f/ azepine-5-carboxamide [Licarbazepine]” here?
Answer: cross-reactive

Question: With carbamazepine [CBZ] as the compound, how does the “HLA-B*1502 frequency, CBZ-tolerant patients” value ([2]; N = 73, carriers, number (%)) read?
Answer: 3 (4.1%)

Question: What about the “HLA-B*1502 frequency, patients with CBZ-induced SJS/TEN” value ([2]; Taiwanese patients, N = 42, carriers, number (%)) of the same compound?
Answer: 42 (100%)

Question: What about the “HLA-B*1502 frequency, CBZ Milder ADRs” value ([2]; n = 16, carriers, number (%)) of the same compound?
Answer: 0 (0%)

Question: And the “HLA-B*1502 carriers among SJS/TEN patients who received the drug” value ([2]; text of Example 3)?
Answer: 100%

Question: And the “HLA-B*1502 carriers in the drug-tolerant group” value ([2]; text of Example 3)?
Answer: 4.1%

Question: And the “negative predictive value of B*1502 for CBZ-induced SJS/TEN” value ([2]; tolerant group as control)?
Answer: 100%

Question: And the “positive predictive value of B*1502 for CBZ-induced SJS/TEN” value ([2]; tolerant group as control)?
Answer: 96.0%

Question: What about the “sensitivity of B*1502 for CBZ-induced SJS/TEN” value ([2]; tolerant group as control) of the same compound?
Answer: 100%

Question: What about the “specificity of B*1502 for CBZ-induced SJS/TEN” value ([2]; tolerant group as control) of the same compound?
Answer: 95.89%

Question: And the “Odds Ratio, B*1502, CBZ-induced SJS/TEN” value ([2]; vs Controls1: patients who had milder ADRs other than SJS, N = 142)?
Answer: 1194.47

Question: What about the “Odds Ratio, B*1502, CBZ-induced SJS/TEN” value ([2]; vs Controls2: general Taiwanese population, N = 94) of the same compound?
Answer: 1383.2

Question: What about the “Odds Ratio, B*1502, CBZ-induced SJS/TEN” value ([2]; vs Controls3: CBZ-tolerant patients, N = 73) of the same compound?
Answer: 1712

Question: What about the “HLA-B*4601 carriers among patients with milder reactions to CBZ” value ([11]; 10 out of 16) of the same compound?
Answer: 62.5%

Question: And the “HLA-B*4601 carriers in the CBZ-tolerant group” value ([11]; 19/73)?
Answer: 26%

Question: And the “odds ratio, B*4601, CBZ-induced milder cutaneous ADRs” value ([11]; vs CBZ-tolerant group)?
Answer: 4.73

Question: What about the “HLA-Cw*0801 frequency, CBZ SJS/TEN” value [3] of the same compound?
Answer: 38 (90%)

Question: What about the “HLA-Cw*0801 frequency, CBZ Tolerant” value [3] of the same compound?
Answer: 10 (13.7%)

Question: And the “HLA-Cw*0806 frequency, CBZ SJS/TEN” value [4]?
Answer: 3 (7.1%)

Question: What about the “HLA-Cw*0806 frequency, CBZ Tolerant” value [4] of the same compound?
Answer: 0 (0%)

Question: What about the “HLA-A*1101 frequency, CBZ SJS/TEN” value [12] of the same compound?
Answer: 31 (73.8%)

Question: What about the “HLA-DRB1*1202 frequency, CBZ SJS/TEN” value [13] of the same compound?
Answer: 35 (83.3%)

Question: What about the Phenotype ([5]; human, in vivo) of the same compound?
Answer: SJS
